# Results: article PMC7516806, “Hybrid Antimicrobial Peptide Targeting Staphylococcus aureus and Displaying Anti-infective Activity in a Murine Model” (Frontiers in Microbiology, 2020)
# No end group written: not given here.
# Experiments:
# [1] = tested on: human red blood cells (hRBCs); assay: Hemolysis assay; assay type: cell-based; conditions: 1.5 h, 37°C, absorbance 570 nm; 0.1% Triton X-100 positive control
# Protocol: The cytotoxicity of peptides was determined by healthy human erythrocytes and the murine macrophage cell line RAW 264.7 via a hemolysis assay and MTT dye reduction assay, respectively ([Wang et al., 2018]). In the hemolysis assay, fresh hRBCs from healthy people were centrifuged for 5 min at 1,000 × g and then washed three times with PBS (pH = 7.2). The 100 μL erythrocyte suspension and peptides were incubated for 1.5 h in an incubator at 37°C. The 96-well plates were centrifuged at 1,000 × g for 5 min, and the supernatants were carefully aspirated. The absorbance at 570 nm indicated the leakage of hemoglobin. The hRBCs in the PBS sample was used as the negative control, and 0.1% Triton X-100 addition served as the positive control. In the MTT dye reduction assay, 1.0–2.0 × 10^5 cells were plated in 96-well plates and then treated with various concentrations of peptides for 4 h at 37°C in a 5% CO2 incubator. Subsequently, 50 μL of MTT was added to the plated cells at a final concentration of 0.5 mg/mL and incubated for 4 h. Then, the cells were centrifuged at 1000 × g for 5 min, and the supernatants were discarded. Formazan crystals were dissolved in 150 μL of DMSO, and the OD570 nm was measured using a microplate reader (TECAN GENios F129004; TECAN, Austria). The experiment was repeated three times independently.
# E. coli 25922 = assay: MIC, modified microtiter dilution; assay type: cell-based, Escherichia coli; conditions: MHB, 2–7 × 10^5 CFU/ml, 37°C, 24 h, lowest concentration with no turbidity, at least three independent repeats
# From the text: (§1) The experiment was repeated at least three times independently.
# E. coli UB1005 = assay: MIC, modified microtiter dilution; assay type: cell-based, Escherichia coli; conditions: MHB, 2–7 × 10^5 CFU/ml, 37°C, 24 h, no turbidity, at least three independent repeats
# From the text: as §1
# L. rhamnosus 7469 = assay: MIC, modified microtiter dilution; assay type: cell-based, Lactobacillus rhamnosus; conditions: 2–7 × 10^5 CFU/ml, 37°C, 24 h, no turbidity, at least three independent repeats
# From the text: as §1
# L. rhamnosus 1.0911 = assay: MIC, modified microtiter dilution; assay type: cell-based, Lactobacillus rhamnosus; conditions: 2–7 × 10^5 CFU/ml, 37°C, 24 h, no turbidity, at least three independent repeats
# From the text: as §1
# L. rhamnosus 1.0936 = assay: MIC, modified microtiter dilution; assay type: cell-based, Lactobacillus rhamnosus; conditions: 2–7 × 10^5 CFU/ml, 37°C, 24 h, no turbidity, at least three independent repeats
# From the text: as §1
# L. rhamnosus 1.0385 = assay: MIC, modified microtiter dilution; assay type: cell-based, Lactobacillus rhamnosus; conditions: 2–7 × 10^5 CFU/ml, 37°C, 24 h, no turbidity, at least three independent repeats
# From the text: as §1
# P. aeruginosa 27853 = assay: MIC, modified microtiter dilution; assay type: cell-based, Pseudomonas aeruginosa; conditions: MHB, 2–7 × 10^5 CFU/ml, 37°C, 24 h, no turbidity, at least three independent repeats
# From the text: as §1
# E. coli K88 = conditions: MHB, 2–7 × 10^5 CFU/ml, 37°C, 24 h, no turbidity, at least three independent repeats
# From the text: (§2) The bacterial strains Escherichia coli (E. coli) ATCC 25922, E. coli K88, E. coli K99, Pseudomonas aeruginosa (P. aeruginosa) ATCC 27853, Escherichia coli (E. coli) UB1005, Salmonella typhimurium 14028, Salmonella pullorum (S. pullorum) C7913, S. typhimurium C7731, S. aureus ATCC 29213, MRSA ATCC 43300, and S. aureus ATCC 25923 were obtained from the College of Veterinary Medicine, Northeast Agricultural University, China. Lactobacillus plantarum (L. plantarum) 8014, Lactobacillus rhamnosus (L. rhamnosus) 7469, L. rhamnosus 1.0911, L. rhamnosus 1.0936, and L. rhamnosus 1.0385 were obtained from the Key Laboratory of Food College, Northeast Agricultural University, China.
# (§3) As in a previous study, the antimicrobial activities of the AMPs were investigated using a modified standard microtiter dilution method ([Dong et al., 2014]). The peptides were serially diluted with a solution containing 0.01% acetic acid and 0.2% bovine serum albumin (BSA, Sigma) in 96-well plates. The bacteria grew to the mid-log phase and then were dissolved in MHB at concentration of 2–7 × 10^5 CFU/ml. The peptides and bacterial solution were mixed in equal volume in a 37°C incubator for 24 h. […] Mueller-Hinton broth with microorganisms was used as the positive control, and the pure broth was used as the negative control. The experiment was repeated at least three times independently.
# E. coli K99 = conditions: MHB, 2–7 × 10^5 CFU/ml, 37°C, 24 h, no turbidity, at least three independent repeats
# From the text: as §2, §3
# L. plantarum 8014 = assay: MIC, modified microtiter dilution; assay type: cell-based, Lactobacillus plantarum; conditions: 2–7 × 10^5 CFU/ml, 37°C, 24 h, no turbidity, at least three independent repeats
# From the text: as §1
# MRSA 43300 = assay type: cell-based, Staphylococcus aureus; conditions: MHB, 2–7 × 10^5 CFU/ml, 37°C, 24 h, no turbidity, at least three independent repeats
# From the text: as §1
# S. aureus 25923 = assay: MIC, modified microtiter dilution; assay type: cell-based, Staphylococcus aureus; conditions: MHB, 2–7 × 10^5 CFU/ml, 37°C, 24 h, no turbidity, at least three independent repeats
# From the text: as §1
# S. aureus 29213 [2] = assay: MIC, modified microtiter dilution; assay type: cell-based, Staphylococcus aureus; conditions: MHB, 2–7 × 10^5 CFU/ml, 37°C, 24 h, no turbidity, at least three independent repeats
# From the text: as §1
# S. typhimurium 14028 = assay: MIC, modified microtiter dilution; assay type: cell-based, Salmonella typhimurium; conditions: MHB, 2–7 × 10^5 CFU/ml, 37°C, 24 h, no turbidity, at least three independent repeats
# From the text: as §1
# S. typhimurium 7731 = assay: MIC, modified microtiter dilution; assay type: cell-based, Salmonella typhimurium; conditions: MHB, 2–7 × 10^5 CFU/ml, 37°C, 24 h, no turbidity, at least three independent repeats
# From the text: as §1
# S. aureus 29213 [3] = assay: MIC in the presence of physiological salts; assay type: cell-based, Staphylococcus aureus; conditions: three independent repeats, unit not given in Table 4
# Protocol: as §1
# The MIC of peptides was determined in the presence of salts at physiological concentrations (150 mM NaCl, 4.5 mM KCl, 6 μM NH4Cl, 8 μM ZnCl2, 1 mM MgCl2, 2 mM CaCl2, and 4 μM FeCl3) as described previously ([Dong et al., 2014]). All experiments were performed three times independently.
# S. pullorum 7913 = assay: MIC, modified microtiter dilution; assay type: cell-based, Salmonella pullorum; conditions: MHB, 2–7 × 10^5 CFU/ml, 37°C, 24 h, no turbidity, at least three independent repeats
# From the text: as §1
substance,measurement,setting,value
RWWWLL-NH2 [Peptide S7],hemolytic activity against hRBCs,[1],barely exhibited hemolysis effects
same,MIC E. coli 25922,E. coli 25922,16 µM
same,MIC E. coli UB1005,E. coli UB1005,16 µM
same,MIC L. rhamnosus 7469,L. rhamnosus 7469,>64 µM
same,MIC L. rhamnosus 1.0911,L. rhamnosus 1.0911,>64 µM
same,MIC L. rhamnosus 1.0936,L. rhamnosus 1.0936,>64 µM
same,MIC L. rhamnosus 1.0385,L. rhamnosus 1.0385,>64 µM
same,MIC P. aeruginosa 27853,P. aeruginosa 27853,>64 µM
same,MIC E. coli K88,E. coli K88,16 µM
same,MIC E. coli K99,E. coli K99,16 µM
same,MIC L. plantarum 8014,L. plantarum 8014,>64 µM
same,MIC MRSA 43300,MRSA 43300,8 µM
same,MIC S. aureus 25923,S. aureus 25923,8 µM
same,MIC S. aureus 29213,S. aureus 29213 [2],8 µM
same,MIC S. typhimurium 14028,S. typhimurium 14028,32 µM
same,MIC S. typhimurium 7731,S. typhimurium 7731,16 µM
same,"MIC against S. aureus 29213, FeCl3",S. aureus 29213 [3]; 4 μM FeCl3,8 µM
same,"MIC against S. aureus 29213, NH4Cl",S. aureus 29213 [3]; 6 μM NH4Cl,8 µM
same,"MIC against S. aureus 29213, ZnCl2",S. aureus 29213 [3]; 8 μM ZnCl2,4 µM
same,"MIC against S. aureus 29213, MgCl2",S. aureus 29213 [3]; 1 mM MgCl2,8 µM
same,"MIC against S. aureus 29213, CaCl2",S. aureus 29213 [3]; 2 mM CaCl2,16 µM
same,"MIC against S. aureus 29213, KCl",S. aureus 29213 [3]; 4.5 mM KCl,8 µM
same,"MIC against S. aureus 29213, NaCl",S. aureus 29213 [3]; 150 mM NaCl,8 µM
same,MIC S. pullorum 7913,S. pullorum 7913,>64 µM
